Results: US20180110721A1, “TOPICAL COSMETIC COMPOSITIONS AGAINST FREE RADICALS” (THE BOOTS COMPANY PLC, priority 2015, published 2018)

Assay: Lipid Peroxidation (LPO) assay
Format: biochemical
Conditions: 2% linoleic acid + 1% trolox in methanol, solar simulator UV dose 36x10^4 J/m^2; FIG. 2 column 2, negative control
Excerpt: Lipids are present in the cell membrane bilayer. Peroxidation of lipids compromises the integrity of skin cells and […] the ageing process resulting in premature ageing. The LPO assay is designed to determine the level of LPO damage in the skin with and without external stresses such as UV exposure; and investigating whether early defence complex can protect against the UV induced LPO damage. K-assay LPO-CC004 lipid peroxidation kit (Kamiya biomedical company)˜500 assays containing— • Reagent 1 (liquid): Enzyme reagent (ascorbic oxidase, lipoprotein lipase, stabilizer, goods buffer, surfactants) • Reagent 2A: Lyophilised chromogen reagent (MCDP for 110 ml reagent 2B) • Reagent 2B: Buffer solution (liquid) (goods buffer, hemoglobin, surfactants) • Calibrator (liquid): (50 nmol/ml cumene hyderoperoxide) • D-squames (CuDerm Corp. Dalla, USA) • Linoleic acid (L.A) • Methanol (MeOH) • Deionised water (dH2O) • 96 well flat bottom clear plate • Plate reader Unless otherwise stated all the samples were prepared weight per volume in methanol. […] Absorbance was read at 675 nm. For each well, the methanol background reading was subtracted from the absorbance reading. […] As samples were run in triplicate, the mean of each sample was then calculated. […]

With Cc1c(C)c2c(c(C)c1O)CCC(C)(C(=O)O)O2 (stereo not shown) [Trolox] the “oxidation (lipid peroxidation, absorbance at 675 nm)” value was “very low oxidation”.
